Values after ≈ are worked out from the molar mass of the structure shown. Where two headings read alike, the source gives them in different places.
How the values were obtained:
[1] = target: T1, full-length beta-Catenin (Uniprot ID P35222) (Homo sapiens, UniProt P35222); assay: Fluorescence polarization IC50 (beta-catenin / 5FAM-TCF4 10-53 competition); type: binding
T1 construct: 10 nM full-length beta-Catenin (Uniprot ID P35222)
T1 sequence (P35222 1-781): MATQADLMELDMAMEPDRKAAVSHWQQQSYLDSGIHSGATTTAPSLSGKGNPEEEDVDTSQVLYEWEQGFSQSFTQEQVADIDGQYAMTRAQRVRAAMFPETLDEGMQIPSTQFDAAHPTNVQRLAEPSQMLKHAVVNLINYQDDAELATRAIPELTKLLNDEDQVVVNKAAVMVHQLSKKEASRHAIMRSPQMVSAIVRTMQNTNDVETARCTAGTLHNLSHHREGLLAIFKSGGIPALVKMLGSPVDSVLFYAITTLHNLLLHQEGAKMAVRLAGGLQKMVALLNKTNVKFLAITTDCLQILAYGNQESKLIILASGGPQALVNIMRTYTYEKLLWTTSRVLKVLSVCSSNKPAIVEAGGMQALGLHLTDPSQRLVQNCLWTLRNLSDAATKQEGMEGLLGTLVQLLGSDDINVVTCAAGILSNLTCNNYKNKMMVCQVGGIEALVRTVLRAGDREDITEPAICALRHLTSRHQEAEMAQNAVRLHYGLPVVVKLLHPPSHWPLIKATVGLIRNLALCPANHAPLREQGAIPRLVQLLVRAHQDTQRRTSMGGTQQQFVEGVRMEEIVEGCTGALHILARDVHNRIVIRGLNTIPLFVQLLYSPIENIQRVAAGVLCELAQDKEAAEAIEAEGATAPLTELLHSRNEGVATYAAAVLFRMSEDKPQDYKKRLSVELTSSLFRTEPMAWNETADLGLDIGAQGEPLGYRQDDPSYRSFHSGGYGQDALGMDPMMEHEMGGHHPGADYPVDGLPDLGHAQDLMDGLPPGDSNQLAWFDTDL

Solubility in PBS = type: physicochemical
Method in brief: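 PBS sample ultracentrifuged; supernatant run on HPLC vs. 50 μM peptide in DMSO standard. Solubility = (PBS peak area / DMSO peak area) × 50 uM.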

CHI Log D procedure = type: physicochemical
[2] = Table E2-1, read-out: beta-Catenin FP IC50
[3] = fluorescence polarization, beta-catenin, read-out: FP EC50

Row | IC50 [1, 2] [nM] | IC50 [1, 3] [nM] | Solubility (Solubility in PBS) [µM] | CHI Log D (CHI Log D procedure; pH 7.4) | Solubility (Solubility in PBS; Solubility (uM)) [µM] | chromatographic logD (CHI Log D procedure; pH 7.4, CHI Log D) | Structure (SMILES) | IC50 ([1]; beta-Catenin FP IC50 (nM), Table E2-1) [nM] | chromatographic logD (CHI Log D procedure; pH 7.4)
1 | 42 | 42 | 44 (≈ 79.8 µg/mL) | 1.977 | – | – | CC(=O)N1CCC[C@]12CC=CCCCC1(CCCC=CCCCCCC[C@@](C)(C(=O)N[C@@H](Cc3ccccc3)C(=O)N[C@@H](Cc3csc4ccccc34)C(=O)N[C@@H](CCC(N)=O)C(N)=O)NC(=O)[C@H](CC(N)=O)NC(=O)[C@H](Cc3ccccc3)NC(=O)[C@H](C)NC(=O)[C@H](C)NC(=O)[C@H](CC(=O)O)NC(=O)[C@H](CC(=O)O)NC1=O)NC(=O)[C@H](C)NC(=O)[C@H](CC(=O)O)NC2=O (stereo partly drawn) [I-344, Ac-PL3-Asp-Ala-B5-Asp-Asp-Ala-Ala-Phe-Asn-S8-Phe-BztA-Gln-NH2] | – | –
2 | 134 | – | – | – | 49 (≈ 89.6 µg/mL) | 2.14 | COC[C@@H]1NC(=O)[C@H](CC(=O)O)NC(=O)[C@]2(CC=CCCCC3(CCCC=CCCCCCC[C@@](C)(C(=O)N[C@@H](Cc4ccccc4)C(=O)N[C@@H](Cc4csc5ccccc45)C(=O)N[C@@H](CCC(N)=O)C(N)=O)NC(=O)[C@H](C(C)C)NC(=O)[C@H](Cc4ccccc4)NC(=O)[C@H](C)NC(=O)[C@H](C)NC(=O)[C@H](CC(=O)O)NC(=O)[C@H](CC(=O)O)NC3=O)NC1=O)CCCN2C(C)=O (stereo partly drawn) [I-345, Ac-PL3-Asp-S(OMe)-B5-Asp-Asp-Ala-Ala-Phe-Val-S8-Phe-BztA-Gln-NH2] | – | –
3 | 180 | 180 | 44 (≈ 81.6 µg/mL) | 1.943 | – | – | CC(=O)N1CCC[C@]12CC=CCCCC1(CCCC=CCCCCCC[C@@](C)(C(=O)N[C@@H](Cc3ccccc3)C(=O)N[C@@H](Cc3csc4ccccc34)C(=O)N[C@@H](CCC(N)=O)C(N)=O)NC(=O)[C@H](C(C)C)NC(=O)[C@H](Cc3ccccc3)NC(=O)[C@H](C)NC(=O)[C@H](C)NC(=O)[C@H](CC(=O)O)NC(=O)[C@H](CC(=O)O)NC1=O)NC(=O)[C@H](CCC(N)=O)NC(=O)[C@H](CC(=O)O)NC2=O (stereo partly drawn) [I-346, Ac-PL3-Asp-Gln-B5-Asp-Asp-Ala-Ala-Phe-Val-S8-Phe-BztA-Gln-NH2] | – | –
4 | 121 | 121 | 50 (≈ 92.8 µg/mL) | 1.956 | – | – | CC(=O)N1CCC[C@]12CC=CCCCC1(CCCC=CCCCCCC[C@@](C)(C(=O)N[C@@H](Cc3ccccc3)C(=O)N[C@@H](Cc3csc4ccccc34)C(=O)N[C@@H](CCC(N)=O)C(N)=O)NC(=O)[C@H](C(C)C)NC(=O)[C@H](Cc3ccccc3)NC(=O)[C@H](C)NC(=O)[C@H](C)NC(=O)[C@H](CC(=O)O)NC(=O)[C@H](CC(=O)O)NC1=O)NC(=O)[C@H](CCC(N)=O)NC(=O)[C@H](CC(=O)O)NC2=O (stereo partly drawn) [I-347, Ac-PL3-Asp-Gln-B5-Asp-Asp-Ala-Ala-Phe-Val-S8-Phe-BztA-Gln-NH2] | – | –
5 | 5000 | – | – | – | 30 (≈ 54.7 µg/mL) | 2.06 | CC(=O)N1CCC[C@]12CC=CCCCC1(CCCC=CCCCCCC[C@@](C)(C(=O)N[C@@H](Cc3ccc(C#N)cc3)C(=O)N[C@@H](Cc3csc4ccccc34)C(=O)N[C@@H](CCC(N)=O)C(N)=O)NC(=O)[C@H](C(C)C)NC(=O)[C@H](Cc3ccccc3)NC(=O)[C@H](C)NC(=O)[C@H](C)NC(=O)[C@H](CC(=O)O)NC(=O)[C@H](CC(=O)O)NC1=O)NC(=O)[C@H](C)NC(=O)[C@H](CC(=O)O)NC2=O (stereo partly drawn) [I-359, Ac-PL3-Asp-Ala-B5-Asp-Asp-Ala-Ala-Phe-Val-S8-4CNF-BztA-Gln-NH2] | – | –
6 | 146 | 146 | 44 (≈ 80.8 µg/mL) | 2.017 | – | – | CC(=O)N1CCC[C@]12CC=CCCCC1(CCCC=CCCCCCC[C@@](C)(C(=O)N[C@@H](Cc3ccccc3)C(=O)N[C@@H](Cc3csc4ccccc34)C(=O)N[C@@H](Cc3c[nH]cn3)C(N)=O)NC(=O)[C@H](CCC(N)=O)NC(=O)[C@H](Cc3ccccc3)NC(=O)[C@H](C)NC(=O)[C@H](C)NC(=O)[C@H](CC(=O)O)NC(=O)[C@H](CC(=O)O)NC1=O)NC(=O)[C@H](C)NC(=O)[C@H](CC(=O)O)NC2=O (stereo partly drawn) [I-360, Ac-PL3-Asp-Ala-B5-Asp-Asp-Ala-Ala-Phe-Gln-S8-Phe-BztA-His-NH2] | – | –
7 | 42 | 42 | 46 (≈ 84.5 µg/mL) | 2.058 | – | – | CC(=O)N1CCC[C@]12CC=CCCCC1(CCCC=CCCCCCC[C@@](C)(C(=O)N[C@@H](Cc3ccccc3)C(=O)N[C@@H](Cc3csc4ccccc34)C(=O)N[C@@H](Cc3c[nH]cn3)C(N)=O)NC(=O)[C@H](CCC(N)=O)NC(=O)[C@H](Cc3ccccc3)NC(=O)[C@H](C)NC(=O)[C@H](C)NC(=O)[C@H](CC(=O)O)NC(=O)[C@H](CC(=O)O)NC1=O)NC(=O)[C@H](C)NC(=O)[C@H](CC(=O)O)NC2=O (stereo partly drawn) [I-361, Ac-PL3-Asp-Ala-B5-Asp-Asp-Ala-Ala-Phe-Gln-S8-Phe-BztA-His-NH2] | – | –
8 | 3660 | – | – | – | 47 (≈ 82.7 µg/mL) | 1.44 | CC(=O)N1CCC[C@]12CC=CCCCC1(CCCC=CCCCCCC[C@@](C)(C(=O)N[C@@H](Cc3c[nH]cn3)C(=O)N[C@@H](Cc3csc4ccccc34)C(=O)N[C@@H](CCC(N)=O)C(N)=O)NC(=O)[C@H](C)NC(=O)[C@H](Cc3ccccc3)NC(=O)[C@H](C)NC(=O)[C@H](C)NC(=O)[C@H](CC(=O)O)NC(=O)[C@H](CC(=O)O)NC1=O)NC(=O)[C@H](C)NC(=O)[C@H](CC(=O)O)NC2=O (stereo partly drawn) [I-362, Ac-PL3-Asp-Ala-B5-Asp-Asp-Ala-Ala-Phe-Ala-S8-His-BztA-Gln-NH2] | – | –
9 | 2720 | 2720 | 48 (≈ 85.6 µg/mL) | 2.038 | – | – | CC(=O)N1CCC[C@]12CC=CCCCC1(CCCC=CCCCCCC[C@@](C)(C(=O)N[C@@H](Cc3ccccc3)C(=O)N[C@@H](Cc3csc4ccccc34)C(=O)N[C@@H](CCC(N)=O)C(N)=O)NC(=O)[C@H](C)NC(=O)[C@H](Cc3ccccc3C)NC(=O)[C@H](C)NC(=O)[C@H](C)NC(=O)[C@H](CC(=O)O)NC(=O)[C@H](CC(=O)O)NC1=O)NC(=O)[C@H](C)NC(=O)[C@H](CC(=O)O)NC2=O (stereo partly drawn) [I-365, Ac-PL3-Asp-Ala-B5-Asp-Asp-Ala-Ala-2MeF-Ala-S8-Phe-BztA-Gln-NH2] | – | –
10 | 2310 | – | – | – | 40 (≈ 71.4 µg/mL) | 1.66 | CC(=O)N1CCC[C@]12CC=CCCCC1(CCCC=CCCCCCC[C@@](C)(C(=O)N[C@@H](Cc3ccc(C)cc3)C(=O)N[C@@H](Cc3csc4ccccc34)C(=O)N[C@@H](CCC(N)=O)C(N)=O)NC(=O)[C@H](C)NC(=O)[C@H](Cc3ccccc3)NC(=O)[C@H](C)NC(=O)[C@H](C)NC(=O)[C@H](CC(=O)O)NC(=O)[C@H](CC(=O)O)NC1=O)NC(=O)[C@H](C)NC(=O)[C@H](CC(=O)O)NC2=O (stereo partly drawn) [I-369, Ac-PL3-Asp-Ala-B5-Asp-Asp-Ala-Ala-Phe-Ala-S8-4MeF-BztA-Gln-NH2] | – | –
11 | 1560 | – | – | – | 47 (≈ 85.5 µg/mL) | 2.18 | CC(=O)N1CCC[C@]12CC=CCCCC1(CCCC=CCCCCCC[C@@](C)(C(=O)N[C@@H](Cc3ccccc3)C(=O)N[C@@H](Cc3csc4ccccc34)C(=O)N[C@@H](CCC(N)=O)C(N)=O)NC(=O)[C@H](C)NC(=O)[C@H](Cc3ccc4ccccc4c3)NC(=O)[C@H](C)NC(=O)[C@H](C)NC(=O)[C@H](CC(=O)O)NC(=O)[C@H](CC(=O)O)NC1=O)NC(=O)[C@H](C)NC(=O)[C@H](CC(=O)O)NC2=O (stereo partly drawn) [I-370, Ac-PL3-Asp-Ala-B5-Asp-Asp-Ala-Ala-2NapA-Ala-S8-Phe-BztA-Gln-NH2] | – | –
12 | 1390 | – | – | – | 48 (≈ 85.8 µg/mL) | 2.14 | CC(=O)N1CCC[C@]12CC=CCCCC1(CCCC=CCCCCCC[C@@](C)(C(=O)N[C@@H](Cc3cccc(F)c3)C(=O)N[C@@H](Cc3csc4ccccc34)C(=O)N[C@@H](CCC(N)=O)C(N)=O)NC(=O)[C@H](C)NC(=O)[C@H](Cc3ccccc3)NC(=O)[C@H](C)NC(=O)[C@H](C)NC(=O)[C@H](CC(=O)O)NC(=O)[C@H](CC(=O)O)NC1=O)NC(=O)[C@H](C)NC(=O)[C@H](CC(=O)O)NC2=O (stereo partly drawn) [I-371, Ac-PL3-Asp-Ala-B5-Asp-Asp-Ala-Ala-Phe-Ala-S8-3FF-BztA-Gln-NH2] | – | –

Row | Structure (SMILES) | IC50 [1, 2] [nM] | IC50 [1, 3] [nM] | Solubility (Solubility in PBS) [µM] | CHI Log D (CHI Log D procedure; pH 7.4) | Solubility (Solubility in PBS; Solubility (uM)) [µM] | chromatographic logD (CHI Log D procedure; pH 7.4, CHI Log D) | IC50 ([1]; beta-Catenin FP IC50 (nM), Table E2-1) [nM] | chromatographic logD (CHI Log D procedure; pH 7.4)
13 | CC(=O)N1CCC[C@]12CC=CCCCC1(CCCC=CCCCCCC[C@@](C)(C(=O)N[C@@H](Cc3ccccc3)C(=O)N[C@@H](Cc3c[nH]c4ccccc34)C(=O)N[C@@H](CCC(N)=O)C(N)=O)NC(=O)[C@H](C(C)C)NC(=O)[C@H](Cc3ccccc3)NC(=O)[C@H](C)NC(=O)[C@H](C)NC(=O)[C@H](C)NC(=O)[C@H](CC(=O)O)NC1=O)NC(=O)[C@H](C)NC(=O)[C@H](CC(=O)O)NC2=O (stereo partly drawn) [I-352, Ac-PL3-Asp-Ala-B5-Asp-Ala-Ala-Ala-Phe-Val-S8-Phe-Trp-Gln-NH2] | – | – | 10 (≈ 17.4 µg/mL) | – | – | – | 5000 | 2.51
